Laboratory results published in patent US11370794B2, “Toll-like receptor antagonist compounds and methods of use” (Dynavax Technologies Corporation, priority 2016, dated 2022).
Where two headings read alike, the source gives them in different places.

Columns and labels:
human TLR9 = target: T1, human TLR9 (Homo sapiens, UniProt Q9NR96); experiment: Inhibition of human TLR9 in human B cells (IL-6 ELISA); type: cell-based; settings: for IC50: human B cells, agonist 1018 ISS 1 μM, IL-6 readout, 48 hours, range about 0.01 to 10 μM, read-out: Human TLR9 IC50; for inhibits TLR9-dependent responses (in words): summary statement of the description
T1 construct: endogenous in cells; host or cells: primary human B cells (CD19 microbeads) from buffy coats of healthy donors
T1 sequence (Q9NR96 26-1032): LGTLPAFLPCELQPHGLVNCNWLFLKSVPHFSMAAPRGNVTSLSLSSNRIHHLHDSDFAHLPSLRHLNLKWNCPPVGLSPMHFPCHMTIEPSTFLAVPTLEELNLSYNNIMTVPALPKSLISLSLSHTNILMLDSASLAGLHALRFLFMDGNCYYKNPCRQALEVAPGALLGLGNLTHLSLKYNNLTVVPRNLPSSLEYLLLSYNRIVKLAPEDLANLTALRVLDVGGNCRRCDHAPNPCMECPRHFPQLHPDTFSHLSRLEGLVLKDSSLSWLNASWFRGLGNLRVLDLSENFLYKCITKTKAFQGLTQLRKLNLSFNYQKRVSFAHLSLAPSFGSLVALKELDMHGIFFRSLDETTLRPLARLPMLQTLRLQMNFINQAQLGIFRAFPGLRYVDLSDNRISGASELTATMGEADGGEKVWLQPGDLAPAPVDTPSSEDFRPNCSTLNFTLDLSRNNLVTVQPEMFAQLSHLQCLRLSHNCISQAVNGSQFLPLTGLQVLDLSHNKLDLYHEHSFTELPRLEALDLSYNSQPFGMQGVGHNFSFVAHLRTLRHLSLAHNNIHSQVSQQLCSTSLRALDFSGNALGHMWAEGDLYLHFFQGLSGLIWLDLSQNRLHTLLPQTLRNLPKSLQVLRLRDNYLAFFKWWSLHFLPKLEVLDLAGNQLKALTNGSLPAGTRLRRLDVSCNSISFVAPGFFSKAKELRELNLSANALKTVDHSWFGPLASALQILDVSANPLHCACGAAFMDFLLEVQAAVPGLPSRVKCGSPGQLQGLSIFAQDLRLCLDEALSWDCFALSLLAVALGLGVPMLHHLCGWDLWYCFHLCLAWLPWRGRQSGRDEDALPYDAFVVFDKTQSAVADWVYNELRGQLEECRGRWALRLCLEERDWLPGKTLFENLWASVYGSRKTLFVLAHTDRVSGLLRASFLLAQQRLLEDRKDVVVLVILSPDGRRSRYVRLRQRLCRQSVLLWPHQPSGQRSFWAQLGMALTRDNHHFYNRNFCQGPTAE
Method in brief: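 Primary human B cells (CD19-isolated from donor buffy coats), ~300,000 per well, treated with compound (about 0.01–10 μM, some 0.001–30 μM) then 1 μM CpG oligonucleotide 1018 ISS. After 48 hours at 37° C, supernatant IL-6 measured by ELISA; IC50 from concentration-response of TLR9-dependent activity.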

human TLR8 = target: T2, human TLR8 (Homo sapiens, UniProt Q9NR97); experiment: Inhibition of human TLR8 in human monocytes (TNF-alpha / IL-1 beta ELISA); type: cell-based; settings: for IC50: human monocytes, agonist ORN8L 100 μg/mL, 24 hours
T2 construct: endogenous in cells; host or cells: primary human monocytes (CD14 microbeads) from buffy coats of healthy donors
T2 sequence (Q9NR97 27-1041): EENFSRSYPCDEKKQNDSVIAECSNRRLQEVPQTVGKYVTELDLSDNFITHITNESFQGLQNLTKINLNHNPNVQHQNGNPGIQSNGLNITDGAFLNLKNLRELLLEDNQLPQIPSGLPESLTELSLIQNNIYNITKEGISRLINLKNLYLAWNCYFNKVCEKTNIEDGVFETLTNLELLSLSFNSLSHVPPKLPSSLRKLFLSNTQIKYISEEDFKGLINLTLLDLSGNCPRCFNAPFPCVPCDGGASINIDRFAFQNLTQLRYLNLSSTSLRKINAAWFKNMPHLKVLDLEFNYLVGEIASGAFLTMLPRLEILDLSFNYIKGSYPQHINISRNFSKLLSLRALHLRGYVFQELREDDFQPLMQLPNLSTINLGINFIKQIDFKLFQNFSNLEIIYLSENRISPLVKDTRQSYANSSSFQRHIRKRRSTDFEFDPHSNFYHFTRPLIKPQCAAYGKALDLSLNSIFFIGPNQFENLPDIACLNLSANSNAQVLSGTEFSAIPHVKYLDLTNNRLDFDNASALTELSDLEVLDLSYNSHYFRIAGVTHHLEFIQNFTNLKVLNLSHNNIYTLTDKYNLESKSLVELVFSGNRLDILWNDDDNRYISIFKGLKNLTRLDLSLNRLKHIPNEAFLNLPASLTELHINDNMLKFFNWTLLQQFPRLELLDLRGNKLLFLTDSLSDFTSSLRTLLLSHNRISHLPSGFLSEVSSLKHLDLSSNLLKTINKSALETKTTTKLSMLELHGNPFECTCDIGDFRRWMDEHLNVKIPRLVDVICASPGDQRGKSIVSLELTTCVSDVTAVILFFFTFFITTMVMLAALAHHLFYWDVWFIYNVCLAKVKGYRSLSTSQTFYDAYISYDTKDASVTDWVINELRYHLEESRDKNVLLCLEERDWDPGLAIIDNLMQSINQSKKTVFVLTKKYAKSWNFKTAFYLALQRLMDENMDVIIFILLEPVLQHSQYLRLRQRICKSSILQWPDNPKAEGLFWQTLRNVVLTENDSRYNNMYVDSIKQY
Method in brief: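 Primary human monocytes from donor buffy coats (~200,000 cells/well) given serially diluted compound, then ORN8L RNA oligonucleotide agonist at 100 μg/mL final. After 24 h at 37 °C, supernatant TNF-alpha and/or IL-1 beta measured by ELISA; IC50 from the concentration-response of cytokine release.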

[1] = TNF-alpha readout, read-out: Human TLR8 IC50 TNF-a
[2] = IL-1 beta readout, read-out: Human TLR8 IC50 IL-1b

Row | Structure (SMILES) | IC50 (human TLR9) [µM] | IC50 (human TLR8; [1]) [µM] | IC50 (human TLR8; [2]) [µM] | inhibits TLR9-dependent responses (in words) (human TLR9) | inhibits TLR8-dependent responses (in words) (human TLR8; summary statement of the description)
1 | Cc1ccc(-n2nc3c(N4CCC(C(=O)N5CCC(N6CCOCC6)CC5)CC4)nnc(C)c3c2C)cc1 [compound 69, (1-(3,4-dimethyl-2-(p-tolyl)-2H-pyrazolo[3,4-d]pyridazin-7-yl)piperidin-4-yl)(4-morpholinopiperidin-1-yl)methanone] | 0.253 | 3.84 |  |  | 
2 | CCCN1CCN(C(=O)C2CCN(c3nnc(C)c4c(C)n(-c5ccccc5)nc34)CC2)CC1 [64x, (1-(3,4-dimethyl-2-phenyl-2H-pyrazolo[3,4-d]pyridazin-7-yl)piperidin-4-yl)(4-propylpiperazin-1-yl)methanone] | 0.013 | 0.9 | 0.66 |  | 
3 | Cc1nnc(N2CCC(C(=O)NCCN3CCCCC3C)CC2)c2nn(-c3ccccc3)c(C)c12 (centres unmarked) [24x, 1-(3,4-dimethyl-2-phenyl-2H-pyrazolo[3,4-d]pyridazin-7-yl)-N-(2-(2-methylpiperidin-1-yl)ethyl)piperidine-4-carboxamide] | 0.032 | > 10 | > 10 | inhibit | 
4 | CCN(CC)CCCNC(=O)C1CCN(c2nnc(C)c3c(C)n(-c4ccccc4)nc23)CC1 [7x, N-(3-(diethylamino)propyl)-1-(3,4-dimethyl-2-phenyl-2H-pyrazolo[3,4-d]pyridazin-7-yl)piperidine-4-carboxamide] | 0.368 | > 10 | > 10 |  | 
5 | Cc1nnc(N2CCCC(C(=O)NCCCN3CCOCC3)C2)c2nn(-c3ccccc3)c(C)c12 (centres unmarked) [49x, 1-(3,4-dimethyl-2-phenyl-2H-pyrazolo[3,4-d]pyridazin-7-yl)-N-(3-morpholinopropyl)piperidine-3-carboxamide] | 0.029 | 3.56 | 3.94 |  | 
6 | Cc1ccc(-n2nc3c(N4CCC(C(=O)NCCCN5CCc6ccccc65)CC4)nnc(C)c3c2C)cc1 [2-4] | > 10 | > 10 | > 10 |  | 
7 | COc1ccc(-n2nc3c(N4CCCC(C(=O)NCCN(C)C)C4)nnc(C)c3c2C)cc1 (centres unmarked) [54x, N-(2-(dimethylamino)ethyl)-1-(2-(4-methoxyphenyl)-3,4-dimethyl-2H-pyrazolo[3,4-d]pyridazin-7-yl)piperidine-3-carboxamide] | 0.004 | 0.29 | 0.74 | inhibit | inhibit
8 | Cc1ccc(-n2nc3c(N4CCC(C(=O)N5CCOCC5)CC4)nnc(C)c3c2C)cc1 [2-3] | > 10 | > 10 | > 10 |  | 
9 | Cc1ccc(-n2nc3c(N4CCC(C(=O)NCCCN5CCCc6ccccc65)CC4)nnc(C)c3c2C)cc1 [2-5] | > 10 | > 10 | > 10 |  | 
10 | Cc1ccc(-n2nc3c(N4CCC(C(=O)NCCN(C)C)CC4)nnc(C)c3c2C)cc1 [Compound No. 21x, 1-(3,4-dimethyl-2-(p-tolyl)-2H-pyrazolo[3,4-d]pyridazin-7-yl)-N-(2-(dimethylamino)ethyl)piperidine-4-carboxamide] | 0.004 | > 10 | > 10 | inhibit | 
11 | Cc1ccc(-n2nc3c(N4CCC(C(=O)N5CCC6(CC5)CNC6)CC4)nnc(C)c3c2C)cc1 [compound 73, (1-(3,4-dimethyl-2-(p-tolyl)-2H-pyrazolo[3,4-d]pyridazin-7-yl)piperidin-4-yl)(2,7-diazaspiro[3.5]nonan-7-yl)methanone] | 1.14 | ≥ 20 |  |  | 
12 | Cc1ccc(-n2nc3c(N4CCCC(C(=O)NCCNc5ccccc5)C4)nnc(C)c3c2C)cc1 (centres unmarked) [compound 58, 1-(3,4-dimethyl-2-(p-tolyl)-2H-pyrazolo[3,4-d]pyridazin-7-yl)-N-(2-(phenylamino)ethyl)piperidine-3-carboxamide] | 4.82 | ≥ 20 |  |  | 
13 | Cc1ccc(-n2nc3c(N4CCN(C(=O)NCCCN(C)C)CC4)nnc(C)c3c2C)cc1 [Compound No. 76, 4-(3,4-dimethyl-2-(p-tolyl)-2H-pyrazolo[3,4-d]pyridazin-7-yl)-N-(3-(dimethylamino)propyl)piperazine-1-carboxamide] | 0.118 | 11.7 |  |  | 
14 | CCCCN(CC)CCNC(=O)C1CCN(c2nnc(C)c3c(C)n(-c4ccccc4)nc23)CC1 [25x, N-(2-(butyl(ethyl)amino)ethyl)-1-(3,4-dimethyl-2-phenyl-2H-pyrazolo[3,4-d]pyridazin-7-yl)piperidine-4-carboxamide] | 0.041 | 4.85 | 4.54 | inhibit | 
15 | Cc1ccc(-n2nc3c(N4CCC(C(=O)NCCNC(C)C)CC4)nnc(C)c3c2C)cc1 [compound 8, 1-(3,4-dimethyl-2-(p-tolyl)-2H-pyrazolo[3,4-d]pyridazin-7-yl)-N-(2-(isopropylamino)ethyl)piperidine-4-carboxamide] | 0.308 | > 10 | > 10 |  | 
16 | Cc1ccc(-n2nc3c(N4CCC(C(=O)NCC(C)(C)CN)CC4)nnc(C)c3c2C)cc1 [Compound No. 7, N-(3-amino-2,2-dimethylpropyl)-1-(3,4-dimethyl-2-(p-tolyl)-2H-pyrazolo[3,4-d]pyridazin-7-yl)piperidine-4-carboxamide] | 0.36 | > 10 | > 10 |  | 
17 | CCN(CC)CCNC(=O)C1CCN(c2nnc(C)c3c(C)n(-c4ccc(C)cc4)nc23)CC1 [20x, N-(2-(diethylamino)ethyl)-1-(3,4-dimethyl-2-(p-tolyl)-2H-pyrazolo[3,4-d]pyridazin-7-yl)piperidine-4-carboxamide] | 0.003 | 4.86 | 5.04 |  | 
18 | Cc1ccc(-n2nc3c(N4CCC(C(=O)N5CCC(N6CCC6)CC5)CC4)nnc(C)c3c2C)cc1 [compound 65, (4-(azetidin-1-yl)piperidin-1-yl)(1-(3,4-dimethyl-2-(p-tolyl)-2H-pyrazolo[3,4-d]pyridazin-7-yl)piperidin-4-yl)methanone] | 0.01 | 1.85 |  |  | 
19 | CNC(=O)C1CCN(c2nnc(C)c3c(C)n(-c4ccc(C)cc4)nc23)CC1 [2-2] | 3.77 | ≥ 20 |  |  | 
